Results as given in ChEMBL document CHEMBL3120081, “Imidazopyridazine hepatitis C virus polymerase inhibitors. Structure-activity relationship studies and the discovery of a novel, traceless prodrug mechanism” (J Med Chem, 2014).
≈ marks a conversion by molar mass, not a printed value. One block for each compound: values may come before it.

Experiments:
[1] = Oral bioavailability in CD rat at 5 mg/kg by LC/MS/MS analysis; format: ADME, organism-based; conditions: in vivo
[2] = Solubility of the compound in phosphate buffered saline at pH 7.4 after 1 hr by chemiluminescence nitrogen detection assay; format: physicochemical
Hepatitis C virus [3] = assay: Antiviral activity against Hepatitis C virus genotype 1b infected in human HuH7 cells after 48 hrs by luciferase reporter gene assay; format: functional, organism-based, Hepacivirus hominis; conditions: Huh-7, 48 h
Hepatitis C virus [4] = assay: Antiviral activity against Hepatitis C virus genotype 1a infected in human HuH7 cells after 48 hrs by luciferase reporter gene assay; format: functional, organism-based, Hepacivirus hominis; conditions: subtype 1a, Huh-7, 48 h
[5] = Oral bioavailability in beagle dog at 5 mg/kg by LC/MS/MS analysis; format: ADME, organism-based, Canis lupus familiaris; conditions: in vivo
[6] = AUC in CD rat at 1000 mg/kg by LC/MS/MS analysis; format: ADME, organism-based; set-up: dose 1000 mg/kg; conditions: plasma
Canis familiaris = assay: Hepatotoxicity in beagle dog at 10 to 600 mg/kg/day, po qd for 7 days; format: toxicity, organism-based, Canis lupus familiaris; set-up: route oral; conditions: in vivo, 168 h
Rattus norvegicus = assay: Toxicity in rat at 10 to 1000 mg/kg/day, po qd for 7 days; format: organism-based; set-up: route oral; conditions: in vivo, 168 h
[7] = Stability of the compound in water at 1 uM at pH 2 up to 60 mins by LC/MS/MS analysis; format: physicochemical; conditions: buffer, pH 2, 1 h
[8] = Stability in rat microsomes at 0.5 uM by LC/MS/MS analysis; format: ADME, Microsome
Hepatocyte = assay: Stability in rat hepatocytes at 0.5 uM by LC/MS/MS analysis; format: ADME, cell-based
[9] = Stability of the compound in water at 1 uM at pH 7 up to 60 mins by LC/MS/MS analysis; format: physicochemical; conditions: buffer, pH 7, 1 h
[10] = Stability of the compound in blood (unknown origin) at 1 uM up to 60 mins by LC/MS/MS analysis; format: ADME, tissue-based; conditions: 1 h
[11] = Oral bioavailability in CD rat at 1 mg/kg by LC/MS/MS analysis; format: ADME, organism-based; conditions: in vivo
[12] = Aqueous solubility of the compound at pH 6.8; format: physicochemical
[13] = Clearance in beagle dog at 1 mg/kg, iv by LC/MS/MS analysis; format: ADME, organism-based, Canis lupus familiaris; set-up: dose 1 mg/kg, route intravenous; conditions: in vivo
[14] = Cmax in CD rat at 100 mg/kg by LC/MS/MS analysis; format: ADME, organism-based; set-up: dose 100 mg/kg; conditions: in vivo
[15] = AUC in beagle dog at 1 mg/kg, po by LC/MS/MS analysis; format: ADME, organism-based, Canis lupus familiaris; set-up: dose 1 mg/kg, route oral; conditions: plasma
[16] = AUC in CD rat at 300 mg/kg by LC/MS/MS analysis; format: ADME, organism-based; set-up: dose 300 mg/kg; conditions: plasma
[17] = Cytotoxicity against human MT4 cells after 48 hrs by WST assay; format: cell-based
[18] = Cmax in CD rat at 30 mg/kg by LC/MS/MS analysis; format: ADME, organism-based; set-up: dose 30 mg/kg; conditions: in vivo
[19] = Cmax in CD rat at 300 mg/kg by LC/MS/MS analysis; format: ADME, organism-based; set-up: dose 300 mg/kg; conditions: in vivo
[20] = Intrinsic clearance in beagle dog microsomes; format: ADME, Canis lupus familiaris, Microsome
[21] = Volume of distribution in beagle dog at 1 mg/kg, iv by LC/MS/MS analysis; format: ADME, organism-based, Canis lupus familiaris; set-up: dose 1 mg/kg, route intravenous; conditions: in vivo
[22] = Clearance in CD rat at 0.5 mg/kg, iv by LC/MS/MS analysis; format: ADME, organism-based; set-up: dose 0.5 mg/kg, route intravenous; conditions: in vivo
[23] = AUC in CD rat at 10 mg/kg by LC/MS/MS analysis; format: ADME, organism-based; set-up: dose 10 mg/kg; conditions: plasma
[24] = Cytotoxicity against human HepG2 cells after 48 hrs by WST assay; format: cell-based
[25] = Oral bioavailability in beagle dog at 1 mg/kg by LC/MS/MS analysis; format: ADME, organism-based, Canis lupus familiaris; conditions: in vivo
[26] = target: Voltage-gated inwardly rectifying potassium channel KCNH2 (Homo sapiens, UniProt Q12809); assay: Inhibition of human ERG expressed in HEK293 cells; format: cell-based
Chain of Voltage-gated inwardly rectifying potassium channel KCNH2 (Q12809 whole entry): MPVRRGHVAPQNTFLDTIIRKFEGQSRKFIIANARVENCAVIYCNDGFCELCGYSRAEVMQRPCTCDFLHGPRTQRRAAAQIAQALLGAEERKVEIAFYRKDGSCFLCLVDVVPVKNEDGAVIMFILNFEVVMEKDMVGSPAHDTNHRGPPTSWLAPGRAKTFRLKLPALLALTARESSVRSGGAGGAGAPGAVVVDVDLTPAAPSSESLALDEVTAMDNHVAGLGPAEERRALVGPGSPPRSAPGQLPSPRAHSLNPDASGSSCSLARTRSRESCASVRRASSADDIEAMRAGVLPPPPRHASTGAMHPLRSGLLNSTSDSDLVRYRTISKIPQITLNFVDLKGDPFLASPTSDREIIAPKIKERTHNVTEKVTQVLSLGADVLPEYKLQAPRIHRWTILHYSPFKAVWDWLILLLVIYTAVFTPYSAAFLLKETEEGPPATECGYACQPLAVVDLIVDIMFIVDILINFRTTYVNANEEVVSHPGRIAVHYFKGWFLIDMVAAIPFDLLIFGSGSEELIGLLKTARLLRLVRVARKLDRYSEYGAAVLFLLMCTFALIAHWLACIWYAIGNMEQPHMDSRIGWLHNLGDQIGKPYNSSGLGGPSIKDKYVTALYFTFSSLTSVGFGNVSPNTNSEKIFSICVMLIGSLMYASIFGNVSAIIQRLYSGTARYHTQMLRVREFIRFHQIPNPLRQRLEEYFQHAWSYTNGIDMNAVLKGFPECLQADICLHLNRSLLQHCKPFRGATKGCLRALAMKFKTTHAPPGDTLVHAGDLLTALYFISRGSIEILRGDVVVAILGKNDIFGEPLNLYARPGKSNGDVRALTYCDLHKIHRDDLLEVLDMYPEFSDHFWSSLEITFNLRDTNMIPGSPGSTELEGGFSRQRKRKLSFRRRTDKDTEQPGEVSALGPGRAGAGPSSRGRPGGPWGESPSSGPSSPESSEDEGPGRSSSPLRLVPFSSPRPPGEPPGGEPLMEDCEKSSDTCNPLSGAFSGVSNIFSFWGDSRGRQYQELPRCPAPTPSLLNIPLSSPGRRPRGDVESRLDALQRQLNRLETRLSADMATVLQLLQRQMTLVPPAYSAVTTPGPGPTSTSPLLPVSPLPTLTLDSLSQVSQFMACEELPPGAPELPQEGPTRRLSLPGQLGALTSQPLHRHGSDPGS

[27] = Cytotoxicity against human HuH7 cells after 48 hrs by WST assay; format: cell-based, Huh-7
[28] = AUC in CD rat at 30 mg/kg by LC/MS/MS analysis; format: ADME, organism-based; set-up: dose 30 mg/kg; conditions: plasma
[29] = Cmax in CD rat at 10 mg/kg by LC/MS/MS analysis; format: ADME, organism-based; set-up: dose 10 mg/kg; conditions: in vivo
[30] = Intrinsic clearance in CD rat microsomes; format: ADME, Microsome
[31] = AUC in CD rat at 100 mg/kg by LC/MS/MS analysis; format: ADME, organism-based; set-up: dose 100 mg/kg; conditions: plasma
[32] = Half life in beagle dog at 1 mg/kg, iv by LC/MS/MS analysis; format: ADME, organism-based, Canis lupus familiaris; set-up: dose 1 mg/kg, route intravenous; conditions: in vivo
[33] = Plasma protein binding in human at 5 uM after 4 hrs by rapid equilibrium dialysis technique; format: ADME, cell-free; conditions: read-out: PPB (converted)
[34] = Inhibition of Hepatitis C virus genotype 1b NS5B; set-up: species or system Hepatitis C virus subtype 1b
[35] = Volume of distribution in CD rat at 0.5 mg/kg, iv by LC/MS/MS analysis; format: ADME, organism-based; set-up: dose 0.5 mg/kg, route intravenous; conditions: in vivo
[36] = AUC in CD rat at 1 mg/kg, po by LC/MS/MS analysis; format: ADME, organism-based; set-up: dose 1 mg/kg, route oral; conditions: plasma
[37] = Inhibition of Hepatitis C virus genotype 1b NS3; set-up: species or system Hepatitis C virus subtype 1b
[38] = Half life in CD rat at 0.5 mg/kg, iv by LC/MS/MS analysis; format: ADME, organism-based; set-up: dose 0.5 mg/kg, route intravenous; conditions: in vivo

Structure (SMILES): CCCOc1ccc(-c2cc(C(C(=O)OCCCO)n3cc4nc(-c5cccc(F)c5F)nc-4cn3)on2)c(C(F)(F)F)c1 (centres undefined)
bioavailability [1]: 91%
solubility kinetic at 1 h [2]: 14 µM (≈ 8.65 µg/mL)
EC50 (Hepatitis C virus [3]): 6 nM
EC50 (Hepatitis C virus [4]): 23 nM
bioavailability [5]: 63%
AUC [6]: 64 µg·h/mL

Structure (SMILES): COc1ncc(-c2cc(Cn3cc4nc(-c5cccc(F)c5F)nc-4cn3)on2)cn1
EC50 (Hepatitis C virus [3]): > 50000 nM
EC50 (Hepatitis C virus [4]): > 50000 nM

Structure (SMILES): Fc1ccccc1-c1nc2ccn(Cc3ccc(-c4ccc(C(F)(F)F)cc4C(F)(F)F)nn3)cc-2n1 [TEGOBUVIR]
EC50 (Hepatitis C virus [3]): 5 nM

Structure (SMILES): CCCOc1ccc(-c2cnc(Cn3cc4nc(-c5cccc(F)c5F)nc-4cn3)cn2)c(C(F)(F)F)c1
EC50 (Hepatitis C virus [3]): 30 nM
EC50 (Hepatitis C virus [4]): 60 nM

Structure (SMILES): Fc1cccc(-c2nc3cnn(Cc4cn(-c5ccc(C(F)(F)F)cc5C(F)(F)F)cn4)cc-3n2)c1F
EC50 (Hepatitis C virus [3]): 7000 nM
EC50 (Hepatitis C virus [4]): > 50000 nM

Structure (SMILES): CCCOc1ccc(-c2ccc(Cn3cc4nc(-c5cccc(F)c5F)nc-4cn3)nn2)c(C(F)(F)F)c1
EC50 (Hepatitis C virus [3]): 7 nM
EC50 (Hepatitis C virus [4]): 18 nM

Structure (SMILES): CCCOc1ccc(-c2cc(C(C(=O)OCCOCCO)n3cc4nc(-c5cccc(F)c5F)nc-4cn3)on2)c(C(F)(F)F)c1 (centres undefined)
Activity (Canis familiaris): Toxic
bioavailability [1]: 98%
Activity (Rattus norvegicus): Non-toxic
solubility kinetic at 1 h [2]: 24 µM (≈ 15.5 µg/mL)
EC50 (Hepatitis C virus [3]): 3 nM
EC50 (Hepatitis C virus [4]): 11 nM
bioavailability [5]: 91%
AUC [6]: 325 µg·h/mL

Structure (SMILES): CCCOc1ccc(-c2cnc(Cn3cc4nc(-c5cccc(F)c5F)nc-4cn3)nc2)c(C(F)(F)F)c1
EC50 (Hepatitis C virus [3]): 240 nM
EC50 (Hepatitis C virus [4]): 300 nM

Structure (SMILES): CCCOc1cnc(-c2cc(Cn3cc4nc(-c5cccc(F)c5F)nc-4cn3)on2)cn1
EC50 (Hepatitis C virus [3]): 220 nM
EC50 (Hepatitis C virus [4]): 1400 nM

Structure (SMILES): CCCOc1ccc(-c2cc(Cn3cc4nc(-c5cccc(F)c5F)nc-4cn3)no2)cc1
EC50 (Hepatitis C virus [3]): 40 nM
EC50 (Hepatitis C virus [4]): 110 nM

Now from value to compound, other results behind:

EC50 (Hepatitis C virus [3]): 40 nM
EC50 (Hepatitis C virus [4]): 300 nM
Structure (SMILES): Fc1cccc(-c2nc3cnn(Cc4ccc(-c5ccc(C(F)(F)F)cc5C(F)(F)F)cn4)cc-3n2)c1F

EC50 (Hepatitis C virus [3]): > 50000 nM
Structure (SMILES): Fc1cccc(-c2nc3cnn(Cc4cc(-c5ccc(C(F)(F)F)cc5C(F)(F)F)no4)cc-3n2)c1

Stability [7]: Stable
bioavailability [1]: 33%
solubility kinetic at 1 h [2]: 1.6 µM (≈ 0.825 µg/mL)
Stability [8]: Stable
EC50 (Hepatitis C virus [3]): 3 nM
Stability (Hepatocyte): Stable
Stability [9]: Stable
Stability [10]: Stable
EC50 (Hepatitis C virus [4]): 21 nM
bioavailability [5]: 12%
Structure (SMILES): CCCOc1ccc(-c2cc(Cn3cc4nc(-c5cccc(F)c5F)nc-4cn3)on2)c(C(F)(F)F)c1

bioavailability [11]: 109%
solubility [12]: < 0.01 µg/mL
clearance [13]: 2.7 mL/min/kg
Cmax [14]: 7400 ng/mL
AUC [15]: 2000 ng·h/mL
AUC [16]: 31000 ng·h/mL
Cmax [18]: 7200 ng/mL
Cmax [19]: 2900 ng/mL
CLint scaled [20]: < 10 mL/min/kg
Vd [21]: 0.83 L/kg
clearance [22]: 3 mL/min/kg
AUC [23]: 25000 ng·h/mL
bioavailability [25]: 18.8%
AUC [28]: 98000 ng·h/mL
Cmax [29]: 1900 ng/mL
CLint scaled [30]: < 10 mL/min/kg
AUC [31]: 102 µg·h/mL
EC50 (Hepatitis C virus [3]): 16 nM
half-life [32]: 414 min
fraction unbound at 4 h, 5 µM [33]: 0.002
IC50 [34]: > 50 µM
Vd [35]: 0.57 L/kg
EC50 (Hepatitis C virus [4]): 120 nM
AUC [36]: 6300 ng·h/mL
IC50 [37]: > 50 µM
half-life [38]: 186 min
Structure (SMILES): Fc1cccc(-c2nc3cnn(Cc4cc(-c5ccc(C(F)(F)F)cc5C(F)(F)F)no4)cc-3n2)c1F
CC50 at 48 h [17]: > 50 µM
CC50 at 48 h [24]: > 50 µM
IC50 [26]: > 50.1 µM
CC50 at 48 h [27]: > 50 µM

EC50 (Hepatitis C virus [3]): 24 nM
EC50 (Hepatitis C virus [4]): 70 nM
Structure (SMILES): Fc1cccc(-c2nc3cnn(Cc4cc(-c5ccc(C(F)(F)F)cc5)no4)cc-3n2)c1F
